This passage reports Response results from ChEMBL document CHEMBL1150987, “Structure/activity relationships among photosensitizers related to pheophorbides and bacteriopheophorbides” (1992).

Holding throughout (type): functional
Assay [1] concerns Mus musculus. In words: In vivo antitumor activity as percent tumor response at dose of 0.3 mg/kg, 24 hours post injection of SMT-F tumor in DBA/2 mice at day 1-2.
For assay [2], the system named is Mus musculus. Briefly: In vivo antitumor activity as percent tumor response at dose of 0.3 mg/kg, 24 hours post injection of SMT-F tumor in DBA/2 mice at day 30.
The test system of assay [3] is Mus musculus. In words: In vivo antitumor activity as percent tumor response at dose of 0.3 mg/kg, 24 hours post injection of SMT-F tumor in DBA/2 mice at day 7.
In assay [4] the test system is Mus musculus. In words: In vivo antitumor activity as percent tumor response at dose of 5.0 mg/kg, 24 hours post injection of SMT-F tumor in DBA/2 mice at day 1-2.
Assay [5] concerns Mus musculus. In words: In vivo antitumor activity as percent tumor response at dose of 5.0 mg/kg, 24 hours post injection of SMT-F tumor in DBA/2 mice at day 30.
Assay [6] has as its system Mus musculus. In words: In vivo antitumor activity as percent tumor response at dose of 5.0 mg/kg, 24 hours post injection of SMT-F tumor in DBA/2 mice at day 7.
Assay [7] has as its system Mus musculus. In words: In vivo antitumor activity as percent tumor response at dose of 5.0 mg/kg, 3 hours post injection of SMT-F tumor in DBA/2 mice at day 1-2.
For assay [8], the system named is Mus musculus. In words: In vivo antitumor activity as percent tumor response at dose of 5.0 mg/kg, 3 hours post injection of SMT-F tumor in DBA/2 mice at day 30.
Assay [9] deals with Mus musculus. Briefly: In vivo antitumor activity as percent tumor response at dose of 5.0 mg/kg, 3 hours post injection of SMT-F tumor in DBA/2 mice at day 7.
Assay [10] concerns Mus musculus. Briefly: In vivo antitumor activity as percent tumor response at dose of 2.5 mg/kg 3h between injection and light treatment in mice at day 7.
The subject of assay [11] is Mus musculus. Briefly: In vivo antitumor activity as percent tumor response at dose of 2.5 mg/kg, 24 hours post injection of SMT-F tumor in DBA/2 mice at day 1-2.
The subject of assay [12] is Mus musculus. In words: In vivo antitumor activity as percent tumor response at dose of 2.5 mg/kg, 24 hours post injection of SMT-F tumor in DBA/2 mice at day 30.
Assay [13] has as its system Mus musculus. Briefly: In vivo antitumor activity as percent tumor response at dose of 2.5 mg/kg, 24 hours post injection of SMT-F tumor in DBA/2 mice at day 7.
Assay [14] concerns Mus musculus. In words: In vivo antitumor activity as percent tumor response at dose of 2.5 mg/kg, 3 hours post injection of SMT-F tumor in DBA/2 mice at day 1-2.
In assay [15] the test system is Mus musculus. In words: In vivo antitumor activity as percent tumor response at dose of 2.5 mg/kg, 3 hours post injection of SMT-F tumor in DBA/2 mice at day 30.
The subject of assay [16] is Mus musculus. In words: In vivo antitumor activity as percent tumor response at dose of 0.3 mg/kg, 3 hours post injection of SMT-F tumor in DBA/2 mice at day 30.
Assay [17] concerns Mus musculus. Briefly: In vivo antitumor activity as percent tumor response at dose of 0.3 mg/kg, 3 hours post injection of SMT-F tumor in DBA/2 mice at day 7.
In assay [18] the test system is Mus musculus. Briefly: In vivo antitumor activity as percent tumor response at dose of 0.3 mg/kg, 3 hours post injection of SMT-F tumor in DBA/2 mice at day 1-2.
The subject of assay [19] is Mus musculus. In words: In vivo antitumor activity as percent tumor response at dose of 1.0 mg/kg, 24 hours post injection of SMT-F tumor in DBA/2 mice at day 1-2.
For assay [20], the system named is Mus musculus. In words: In vivo antitumor activity as percent tumor response at dose of 1.0 mg/kg, 24 hours post injection of SMT-F tumor in DBA/2 mice at day 30.
The subject of assay [21] is Mus musculus. Briefly: In vivo antitumor activity as percent tumor response at dose of 1.0 mg/kg, 24 hours post injection of SMT-F tumor in DBA/2 mice at day 7.
Assay [22] deals with Mus musculus. In words: In vivo antitumor activity as percent tumor response at dose of 0.25 mg/kg, 24 hours post injection of SMT-F tumor in DBA/2 mice at day 1-2.
Assay [23] has as its system Mus musculus. Briefly: In vivo antitumor activity as percent tumor response at dose of 0.25 mg/kg, 24 hours post injection of SMT-F tumor in DBA/2 mice at day 30.
The test system of assay [24] is Mus musculus. In words: In vivo antitumor activity as percent tumor response at dose of 0.25 mg/kg, 24 hours post injection of SMT-F tumor in DBA/2 mice at day 7.

`CCCCCCOCC1=C(C)c2cc3nc(c4c5[nH]c(cc6[nH]c(cc1n2)c(C)c6CC)c(C)c5C(=O)C4)[C@@H](CCC(=O)OC)[C@@H]3C`: the Response in the assay on Mus musculus [1] is 100%; in the assay on Mus musculus [2], 0%; with Mus musculus [3], 33%.

For `C=Cc1c(C)c2cc3nc(c4c5nc(cc6[nH]c(cc1[nH]2)c(C)c6CC)C(C)=C5C(=S)C4)[C@@H](CCC(=O)OC)[C@@H]3C`, the Response worked out at 0% in the assay on Mus musculus [4]; 0% in the assay with Mus musculus [5]; 0% in the assay with Mus musculus [6]; 100% in the assay on Mus musculus [7]; 80% in the assay on Mus musculus [8]; 100% in the assay on Mus musculus [9].

For the compound `CCc1c(C)c2cc3[nH]c(cc4nc(c(CC(=O)OC)c5nc(cc1[nH]2)C(C)=C5C(=O)OC)[C@@H](CCC(=O)OC)[C@@H]4C)c(C)c3C=O`, the Response with Mus musculus [4], in the assay on Mus musculus [5] and in the assay with Mus musculus [6] was 0% each time.

As to `CCc1c(C)c2cc3[nH]c(cc4nc(c5c6nc(cc1[nH]2)C(C)=C6C(=O)C5)[C@@H](CCC(=O)OC)[C@@H]4C)c(C)c3C=O`, the Response in the assay on Mus musculus [10] came to 67%; with Mus musculus [11], 0%; in the assay with Mus musculus [12] it was 0%; in the assay with Mus musculus [13], 0%; in the assay with Mus musculus [14] it was 67%; with Mus musculus [15], 0%.

In the case of `CCCCCCOC(C)c1c(C)c2cc3nc(c4c5nc(cc6[nH]c(cc1[nH]2)[C@@](C)(O)[C@]6(O)CC)C(C)=C5C(=O)C4)[C@@H](CCC(=O)OC)[C@@H]3C` (stereo partly drawn), the Response with Mus musculus [16], in the assay on Mus musculus [17] and with Mus musculus [18] was 0% each time.

Take `CCc1c(C)c2cc3[nH]c(cc4nc(c5c6nc(cc1[nH]2)C(C)=C6C(=O)[C@@H]5C(=O)OC)[C@@H](CCC(=O)OC)[C@@H]4C)c(C)c3C=O`: the Response in the assay on Mus musculus [4] amounted to 80%; with Mus musculus [5], 0%; with Mus musculus [6] it was 60%.

As to `CCCCCCOC(C)C1=C(C)c2cc3nc(c(CC(=O)OC)c4[nH]c(cc5[nH]c(cc1n2)c(C)c5CC)c(C)c4C(=O)OC)[C@@H](CCC(=O)OC)[C@@H]3C` (stereo partly drawn), the Response in the assay with Mus musculus [1] is 100%; with Mus musculus [2], 0%; in the assay on Mus musculus [19], 100%; in the assay with Mus musculus [20] it was 0%; with Mus musculus [21], 75%; with Mus musculus [3], 0%.

Turning to `CCc1c(C)c2cc3nc(c4c5nc(cc6[nH]c(cc1[nH]2)[C@@](C)(O)[C@]6(O)CC)C(C)=C5C(=O)C4)[C@@H](CCC(=O)OC)[C@@H]3C`, the Response with Mus musculus [16], in the assay on Mus musculus [17] and with Mus musculus [18] was 0% throughout.

`CCCCCCOC(C)C1=C(C)c2cc3nc(c4c5[nH]c(cc6[nH]c(cc1n2)c(C)c6CC)c(C)c5C(=O)[C@@H]4C(=O)OC)[C@@H](CCC(=O)OC)[C@@H]3C` (stereo partly drawn): the Response is 100% in the assay with Mus musculus [1]; 0% in the assay with Mus musculus [2]; 20% in the assay on Mus musculus [16]; 100% in the assay on Mus musculus [17]; 100% in the assay on Mus musculus [19]; 50% in the assay on Mus musculus [20]. For the same compound, the figures for the Response with Mus musculus [21], with Mus musculus [3] and with Mus musculus [18] were 100%, 90% and 100%, respectively.

For the compound `CCCCCCOC(C)C1=C(C)c2cc3nc(c4c5[nH]c(cc6[nH]c(cc1n2)c(C)c6CC)c(C)c5C(=O)C4)[C@@H](CCC(=O)OC)[C@@H]3C` (stereo partly drawn), the Response with Mus musculus [22] was found to be 100%; in the assay with Mus musculus [23] it was 35%; in the assay with Mus musculus [24], 85%; with Mus musculus [1], 100%; in the assay with Mus musculus [2], 50%; in the assay with Mus musculus [3], 100%.
